Measured values published in patent US4693992A, “Bacitracin-metal-polyether antibiotic complexes” (International Minerals & Chemical Corp., priority 1985, dated 1987).

Assays:
Eimeria tenella [1] = assay: Anticoccidial activity in chickens inoculated with Eimeria tenella oocysts (Example 11); assay type: in vivo; conditions: for Incidence of Bloody Droppings / Morbidity: 4th-6th day; for Morbidity: birds affected/birds in group; for Mortality: 4th-7th day, birds dead/birds in group; for F/G Day 0-3 / F/G Day 4-10: feed per gain
Protocol: (§1) This example describes experimental testing of complexes of this invention for anticoccidial activity. Anticoccidial activities of test compounds were determined by administering the compounds (in feed) to chickens inoculated with active oocysts of Eimeria tenella. The test compounds, which are listed in Table 1 below, included four bacitracin-metal-polyether antibiotic complexes prepared according to the procedures described above. In addition, sodium lysocellin, regular bacitracin, sodium monensin, sodium lasolocid, and unmedicated inoculated and noninoculated controls were included for comparative purposes.
(§2) The test animals were Hubbard White Mountain male chicken (broiler strain) that were 5 days old at the beginning of the test. Each experimental compound was administered in a chick starter diet (Table 2) at a level of 80 g/ton and 120 g/ton. At 7 days of age, chicks were individually weighed, banded, and started on their respective treatments. Each treatment was replicated three times with five birds per replicate for a total of 15 birds per group. The test period was 10 days.
Seventy-two hours after the initiation of medication, birds were reweighed and orally inoculated with approximately 100,000 Eimeria tenella oocysts suspended in a 1 cc dose of saline. The following criteria were then evaluated over the next seven days: […]
a. morbidity (4th-6th day) b. mortality (4th-7th day) c. incidence of bloody droppings (4th-6th day)

Eimeria tenella [2] = assay: Anticoccidial activity in chickens inoculated with Eimeria tenella (Example 12); assay type: in vivo, chicken; conditions: for Cecal bleeding associated with E. tenella infections: 80 gram per ton; for weight gains compared with those of test compound 5 and lasalocid: 80 gram per ton (lasalocid 24 gram per ton)
Protocol: as §1, §2
Seventy-two hours after the initiation of medication, birds were reweighed and orally inoculated with approximately 100,000 Eimeria tenella oocysts suspended in a 1 cc dose of saline. The following criteria were then evaluated over the next seven days:
A satisfactory challenge was obtained with Eimeria tenella.

buffered rumen fluid = assay: Rumen screen, in vitro ruminal volatile fatty acid ratio (Examples 15, 16); assay type: cell-based, steer; conditions: 10 ppm, Neg. Control 1.39
Protocol: Rumen fluid was removed from a fistulated steer and strained through a cheesecloth. An equal amount of pH 7 buffer was added to strained rumen fluid. After layering occurred, the lower layer was saved and again diluted with equal amount of buffer. Ten ml. portions of buffered rumen fluid were added to fermentation vessels containing 500 mg. fresh finely ground cattle ration, 1 mg cellubiose and a test compound listed in Table 1 below at the indicated concentration. The fermentation vesels were outfitted with one-way gas valves, placed in an incubator and shaken for 24 hours at 38° C. Fermentation was stopped by addition of 1 ml mercuric chloride. The liquid was decanted and analyzed for volatile fatty acids by gas chromatography. Test results are summarized in Table 1, wherein Bac=bacitracin.
The procedures of Example 15 were repeated in all essential details with the test compounds and concentrations listed in Table 1 below, as are the results of the test.

[3] = Weight gain and feed utilization efficiency in chicks, 11 days (Example 13); assay type: in vivo, chicken; design: key to Average Weight: average weight in grams; conditions: for Average Gain / Gain/Feed Ratio / Average Weight / Gain/Feed / Average Gain Index / Gain/Feed Ratio Index: .00275% in rye basal diet; for Average Gain / Gain/Feed Ratio: 11 days; for Average Gain Index / Gain/Feed Ratio Index: unmedicated = 100
Protocol: (§3) This example describes experimetnal testing of complexes of the present invention as feed additives for improving weight gain or feed utilization efficiency in birds. Test animals were male meat-type chickens (Hubbard strain). Fluorescent room lights were on a 16 hours light/8 hours dark schedule. The chicks were allotted to the pens on the basis of weight classes, and chicks in the even numbered pens were wing banded. Group weights were obtained at the start and individual weights at the termination of the experiment. Chicks weighing between 55 and 65 grams were selected for the test. The test compounds were blended with a basal feed ration (shown in Table 2) at the indicated concentration. Birds fed […] and feed supplemented with zinc bacitracin (Baciferm® 50, International Minerals and Chemical Corp.) were used as controls. The test was continued for 11 days, after which individual weights, pen weight and feed consumption were recorded and analyzed.

[4] = Weight gain and feed utilization in chicks, 12 days (Example 14); assay type: in vivo, chicken; conditions: .0066% in feed; for Gain/Feed Data / Gains/gram Data: 12 days; for Gain/Feed Index Relative to #1 / Gains Index Relative to #1: #1 = unmedicated; for Gain/Feed Index Relative to #2 / Gains Index Relative to #2: #2 = zinc bacitracin
Protocol: as §3
All of the bacitracin-metal-polyether antibiotic complexes tested produced statistically significant increases in gains compared to the unmedicated basal ration.
The test involving test compounds 1 and 3-14 consisted of 5 replicates of 7 chicks and those involving test compound 2 consisted of 6 replicates of 7 chicks. The tests were continued for 12 days, after which individual weight gains and feed conusumption were recorded and analyzed.

[5] = 14 g/ton Lasalocid (Approx.), regrouped part of Table 2
[6] = 36 g/ton Lasalocid (Approx.), regrouped part of Table 2

Bacitracin-Cobalt-Lysocellin Complex [Example 1]
Incidence of Bloody Droppings (Eimeria tenella [1]; 80 g/ton in feed): Severe
Morbidity (Eimeria tenella [1]; 80 g/ton in feed): 10/15
Mortality (Eimeria tenella [1]; 80 g/ton in feed): 0/15
Gain, Grams Day 0-3 (Eimeria tenella [1]; 80 g/ton in feed): 58.4 Grams
Gain, Grams Day 4-10 (Eimeria tenella [1]; 80 g/ton in feed): 196.5 Grams
F/G Day 0-3 (Eimeria tenella [1]; 80 g/ton in feed): 1.75
F/G Day 4-10 (Eimeria tenella [1]; 80 g/ton in feed): 1.71
Incidence of Bloody Droppings (Eimeria tenella [1]; 120 g/ton in feed): Moderate
Morbidity (Eimeria tenella [1]; 120 g/ton in feed): 4/15
Mortality (Eimeria tenella [1]; 120 g/ton in feed): 0/15
Gain, Grams Day 0-3 (Eimeria tenella [1]; 120 g/ton in feed): 54.1 Grams
Gain, Grams Day 4-10 (Eimeria tenella [1]; 120 g/ton in feed): 209.1 Grams
F/G Day 0-3 (Eimeria tenella [1]; 120 g/ton in feed): 1.81
F/G Day 4-10 (Eimeria tenella [1]; 120 g/ton in feed): 1.66
Cecal Bleeding (Eimeria tenella [2]; [5]): Severe
Gain/Bird Days 0-3 (Eimeria tenella [2]; [5]): 61.6
Gain/Bird Days 4-10 (Eimeria tenella [2]; [5]): 180.1
Cecal Bleeding (Eimeria tenella [2]; [6]): Slight
Feed/Gain Days 0-3 (Eimeria tenella [2]; [6]): 1.65
Gain/Bird Days 0-3 (Eimeria tenella [2]; [6]): 59.0
Gain/Bird Days 4-10 (Eimeria tenella [2]; [6]): 188.4
Incidence of Bloody Droppings (Eimeria tenella [2]; 80 g/ton in feed): Severe
Morbidity (Eimeria tenella [2]; 80 g/ton in feed): 6/15
Mortality (Eimeria tenella [2]; 80 g/ton in feed): 0/15
F/G Day 0-3 (Eimeria tenella [2]; 80 g/ton in feed): 1.62
Gain/Bird Grams Day 0-3 (Eimeria tenella [2]; 80 g/ton in feed): 61.6 Grams
F/G Day 4-10 (Eimeria tenella [2]; 80 g/ton in feed): 1.86
Gain/Bird Grams Day 4-10 (Eimeria tenella [2]; 80 g/ton in feed): 180.1 Grams
Cecal bleeding associated with E. tenella infections (Eimeria tenella [2]): severe
weight gains compared with those of test compound 5 and lasalocid (Eimeria tenella [2]): appreciably higher
Incidence of Bloody Droppings (Eimeria tenella [2]; 120 g/ton in feed): Slight-
Morbidity (Eimeria tenella [2]; 120 g/ton in feed): 4/15
Mortality (Eimeria tenella [2]; 120 g/ton in feed): 0/15
F/G Day 0-3 (Eimeria tenella [2]; 120 g/ton in feed): 1.64
Gain/Bird Grams Day 0-3 (Eimeria tenella [2]; 120 g/ton in feed): 59.0 Grams
F/G Day 4-10 (Eimeria tenella [2]; 120 g/ton in feed): 1.78
Gain/Bird Grams Day 4-10 (Eimeria tenella [2]; 120 g/ton in feed): 188.4 Grams
anticoccidial activity (in words) (Eimeria tenella [2]; 120 grams per ton): good anticoccidial activity
A/P Ratio (buffered rumen fluid; Example 15, 24 hours at 38° C.): 1.10

Bacitracin-Nickel-Lysocellin Complex [Example 4]
protection against cecal bleeding (Eimeria tenella [1]; 80 and 120 g/ton): only fair
bleeding (Eimeria tenella [1]; 80 and 120 g/ton, this test): slight bleeding
anticoccidial activity (in words) (Eimeria tenella [1]; 80 and 120 g/ton, mild E. tenella challenge): performed well
Incidence of Bloody Droppings (Eimeria tenella [1]; 80 g/ton in feed): Slight
Morbidity (Eimeria tenella [1]; 80 g/ton in feed): 2/15
Mortality (Eimeria tenella [1]; 80 g/ton in feed): 0/15
Gain, Grams Day 0-3 (Eimeria tenella [1]; 80 g/ton in feed): 60.8 Grams
Gain, Grams Day 4-10 (Eimeria tenella [1]; 80 g/ton in feed): 229.1 Grams
F/G Day 0-3 (Eimeria tenella [1]; 80 g/ton in feed): 1.70
F/G Day 4-10 (Eimeria tenella [1]; 80 g/ton in feed): 1.59
Incidence of Bloody Droppings (Eimeria tenella [1]; 120 g/ton in feed): Slight
Morbidity (Eimeria tenella [1]; 120 g/ton in feed): 1/15
Mortality (Eimeria tenella [1]; 120 g/ton in feed): 1/15
Gain, Grams Day 0-3 (Eimeria tenella [1]; 120 g/ton in feed): 58.6 Grams
Gain, Grams Day 4-10 (Eimeria tenella [1]; 120 g/ton in feed): 227.7 Grams
F/G Day 0-3 (Eimeria tenella [1]; 120 g/ton in feed): 1.70
F/G Day 4-10 (Eimeria tenella [1]; 120 g/ton in feed): 1.59
bleeding (Eimeria tenella [1]; 200 g/ton, in C-760 (another test)): no bleeding
Cecal Bleeding (Eimeria tenella [2]; [5]): Severe
Gain/Bird Days 0-3 (Eimeria tenella [2]; [5]): 63.3
Gain/Bird Days 4-10 (Eimeria tenella [2]; [5]): 164.1
Cecal Bleeding (Eimeria tenella [2]; [6]): Slight-Moderate
Gain/Bird Days 0-3 (Eimeria tenella [2]; [6]): 59.5
Gain/Bird Days 4-10 (Eimeria tenella [2]; [6]): 187.4
Incidence of Bloody Droppings (Eimeria tenella [2]; 80 g/ton in feed): Severe
Morbidity (Eimeria tenella [2]; 80 g/ton in feed): 9/15
Mortality (Eimeria tenella [2]; 80 g/ton in feed): 0/15
F/G Day 0-3 (Eimeria tenella [2]; 80 g/ton in feed): 1.61
Gain/Bird Grams Day 0-3 (Eimeria tenella [2]; 80 g/ton in feed): 63.3 Grams
F/G Day 4-10 (Eimeria tenella [2]; 80 g/ton in feed): 1.91
Gain/Bird Grams Day 4-10 (Eimeria tenella [2]; 80 g/ton in feed): 164.1 Grams
Cecal bleeding associated with E. tenella infections (Eimeria tenella [2]): severe
weight gains compared with those of test compound 5 and lasalocid (Eimeria tenella [2]): appreciably higher
Morbidity (Eimeria tenella [2]; 120 g/ton in feed): 5/15
Mortality (Eimeria tenella [2]; 120 g/ton in feed): 0/15
F/G Day 0-3 (Eimeria tenella [2]; 120 g/ton in feed): 1.69
Gain/Bird Grams Day 0-3 (Eimeria tenella [2]; 120 g/ton in feed): 59.5 Grams
F/G Day 4-10 (Eimeria tenella [2]; 120 g/ton in feed): 1.72
Gain/Bird Grams Day 4-10 (Eimeria tenella [2]; 120 g/ton in feed): 187.4 Grams
Average Gain [3]: 217 g
Gain/Feed Ratio [3]: 62.8
Average Weight ([3]; Table 4): 277.0
Gain/Feed ([3]; Table 4): 62.8
Average Gain Index [3]: 105.4
Gain/Feed Ratio Index [3]: 98.5
Gain/Feed Data [4]: .585
Gains/gram Data [4]: 197.2 gram
Gain/Feed Index Relative to #1 [4]: 103.9
Gains Index Relative to #1 [4]: 106.5
Gain/Feed Index Relative to #2 [4]: 98.2
Gains Index Relative to #2 [4]: 94.1
A/P Ratio (buffered rumen fluid; Example 15, 24 hours at 38° C.): 1.10
A/P Ratio (buffered rumen fluid; Example 16): .88

Bacitracin-Zinc-Lysocellin Complex [Example 6]
Average Gain [3]: 219 g
Gain/Feed Ratio [3]: 66.7
Average Weight ([3]; Table 4): 279.4
Gain/Feed ([3]; Table 4): 66.7
Average Gain Index [3]: 106.6
Gain/Feed Ratio Index [3]: 104.7
improvement in feed utilization efficiency vs unmedicated controls ([3]; statistical comparison, Table 4): significant imporvement
Gain/Feed Data [4]: .609
Gains/gram Data [4]: 213.8 gram
Gain/Feed Index Relative to #1 [4]: 108.2
Gains Index Relative to #1 [4]: 115.5
Gain/Feed Index Relative to #2 [4]: 102.2
Gains Index Relative to #2 [4]: 102.0
A/P Ratio (buffered rumen fluid; Example 16): 1.14
